Drawing on patent publication EP2970215B1, “PYRROLIDINE DERIVATIVES, PHARMACEUTICAL COMPOSITIONS CONTAINING THEM, AND THEIR USE IN THERAPY” (AbbVie Deutschland GmbH & Co. KG, priority 2013, dated 2014), this text covers Ki for 28 compounds.

One test deals with T1, human GlyT1c transporter (Homo sapiens, UniProt P48067).
T1 construct: expressed in transfected cells; host or cells: CHO cells (recombinant; line hGlyT1c_5_CHO is named for the uptake assay)
T1 sequence (P48067 1-706): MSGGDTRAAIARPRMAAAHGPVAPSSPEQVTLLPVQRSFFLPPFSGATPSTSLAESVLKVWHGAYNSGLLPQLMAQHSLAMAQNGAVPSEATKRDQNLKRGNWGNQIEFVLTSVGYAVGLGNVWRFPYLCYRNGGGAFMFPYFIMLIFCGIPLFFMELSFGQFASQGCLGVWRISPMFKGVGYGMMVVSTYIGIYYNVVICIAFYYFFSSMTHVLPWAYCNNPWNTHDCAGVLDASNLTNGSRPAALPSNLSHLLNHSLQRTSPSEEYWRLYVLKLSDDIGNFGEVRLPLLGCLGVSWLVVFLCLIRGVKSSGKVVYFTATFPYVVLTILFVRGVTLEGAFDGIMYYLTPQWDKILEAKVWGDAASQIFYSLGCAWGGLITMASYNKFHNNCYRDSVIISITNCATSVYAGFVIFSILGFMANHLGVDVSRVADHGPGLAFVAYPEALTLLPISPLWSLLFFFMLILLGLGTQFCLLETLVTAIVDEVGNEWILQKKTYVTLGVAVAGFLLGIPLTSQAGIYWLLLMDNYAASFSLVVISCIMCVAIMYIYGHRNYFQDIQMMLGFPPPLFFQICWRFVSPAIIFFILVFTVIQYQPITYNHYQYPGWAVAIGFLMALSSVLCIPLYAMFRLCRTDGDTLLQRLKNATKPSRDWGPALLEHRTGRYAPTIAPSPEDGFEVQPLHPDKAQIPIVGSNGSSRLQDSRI
Put plainly: Radioligand binding assay using recombinant CHO cell membranes expressing human GlyT1. The note with it: radioligand binding to human GlyT1c transporter-expressing membranes. The source says: 2. Radioligand binding assays using recombinant CHO cell membranes expressing human GlyT1: […]
As to `Cn1cnc(S(=O)(=O)N2C[C@@H](Nc3ccc(C(F)(F)F)cc3)[C@H](c3ccc(F)cc3)C2)c1` (relative stereo) [Example 89, trans-4-(4-fluorophenyl)-1-[(1-methyl-1H-imidazol-4-yl)sulfonyl]-N-[4-(trifluoromethyl)phenyl]pyrrolidin-3-amine], the Ki (commonly a measure of affinity in units of concentration, obtained from inhibition or displacement) was no more than 0.1 µM.
Still for that read-out and setting: the figure for `Cn1cnc(S(=O)(=O)N2C[C@@H](OCc3cccc(S(C)(=O)=O)c3)[C@H](c3ccc(F)cc3)C2)c1` (relative stereo) [Example 714, 4-{[trans-3-(4-fluorophenyl)-4-{[3-(methylsulfonyl)benzyl]oxy}pyrrolidin-1-yl]sulfonyl}-1-methyl-1H-imidazole] is no more than 10 µM; for `Cn1cnc(S(=O)(=O)N2C[C@@H](Nc3ccncc3)[C@H](c3ccc(F)cc3)C2)c1` (relative stereo) [Example 177, N-{trans-4-(4-fluorophenyl)-1-[(1-methyl-1H-imidazol-4-yl)sulfonyl]pyrrolidin-3-yl}pyridin-4-amine] it is no more than 10 µM; for `Cn1cnc(S(=O)(=O)N2C[C@H](Nc3ncc(F)c(C(F)(F)F)c3F)[C@@H](c3ccccc3)C2)c1` [Example 408, 3,5-difluoro-N-{(3R,4S)-1-[(1-methyl-1H-imidazol-4-yl)sulfonyl]-4-phenylpyrrolidin-3-yl}-4-(trifluoromethyl)pyridin-2-amine] it is no more than 10 µM.
On the same count and under the same terms, to `CCCC(F)(F)CN[C@H]1CN(S(=O)(=O)c2cn(C)cn2)C[C@@H]1c1ccc(F)cc1` [Example 734, (3R,4S)-N-(2,2-difluoropentyl)-4-(4-fluorophenyl)-1-[(1-methyl-1H-imidazol-4-yl)sulfonyl]pyrrolidin-3-amine] belongs no more than 0.1 µM; to `Cn1cnc(S(=O)(=O)N2C[C@H](NCc3cccnc3-c3ccc(F)cc3)[C@@H](c3ccccc3)C2)c1` [Example 571, (3R,4S)-N-{[2-(4-fluorophenyl)pyridin-3-yl]methyl}-1-[(1-methyl-1H-imidazol-4-yl)sulfonyl]-4-phenylpyrrolidin-3-amine], no more than 10 µM.
Still for that read-out and setting: the figure for `Cn1cnc(S(=O)(=O)N2C[C@@H](Nc3ccc(F)cc3)[C@H](c3ccccc3Cl)C2)c1` (relative stereo) [Example 253, trans-4-(2-chlorophenyl)-N-(4-fluorophenyl)-1-[(1-methyl-1H-imidazol-4-yl)sulfonyl]pyrrolidin-3-amine] is no more than 1 µM.
Turning to `Cn1cnc(S(=O)(=O)N2C[C@@H](Nc3cccc(C(F)(F)F)c3)[C@H](C3CC3)C2)c1` (relative stereo) [Example 337, Trans-4-cyclopropyl-1-[(1-methyl-1H-imidazol-4-yl)sulfonyl]-N-[3-(trifluoromethyl)phenyl]pyrrolidin-3-amine], the Ki was no more than 1 µM.
For the compound `Cn1cnc(S(=O)(=O)N2C[C@@H](CNc3cccc(Cl)c3)[C@H](c3ccc(F)cc3)C2)c1` (relative stereo) [Example 333, 3-Chloro-N-({trans-4-(4-fluorophenyl)-1-[(1-methyl-1H-imidazol-4-yl)sulfonyl]pyrrolidin-3-yl}methyl)aniline], the Ki is no more than 1 µM.
On the same count and under the same terms, the figure for `Cn1cnc(S(=O)(=O)N2C[C@@H](NC(=O)c3ccc(C#N)cc3)[C@H](c3ccccc3)C2)c1` (relative stereo) [Example 34, 4-cyano-N-{trans-1-[(1-methyl-1H-imidazol-4-yl)sulfonyl]-4-phenylpyrrolidin-3-yl} benzamide] is no more than 10 µM.
On the same count and under the same terms, to `COc1ccc(N[C@H]2CN(S(=O)(=O)c3cn(C)cn3)C[C@@H]2c2ccccc2)cc1C(F)(F)F` [Example 653, (3R,4S)-N-[4-methoxy-3-(trifluoromethyl)phenyl]-1-[(1-methyl-1H-imidazol-4-yl)sulfonyl]-4-phenylpyrrolidin-3-amine] belongs no more than 10 µM.
As for `Cn1cnc(S(=O)(=O)N2C[C@H](NCCC3CC3)[C@@H](c3ccccc3)C2)c1` [Example 545, (3R,4S)-N-(2-cyclopropylethyl)-1-[(1-methyl-1H-imidazol-4-yl)sulfonyl]-4-phenylpyrrolidin-3-amine], the Ki was no more than 1 µM.
As for `O=C1CCc2cc(S(=O)(=O)N3CC(Nc4ccc(F)c(F)c4)C(c4ccccc4)C3)ccc2N1` (stereo not shown) [Example 512], the Ki was no more than 10 µM.
On the same count and under the same terms, to `O=S(=O)(C1CCCCC1)N1CC(Nc2ccc(F)c(F)c2)C(c2ccccc2)C1` (stereo not shown) [Example 510, 1-(cyclohexylsulfonyl)-N-(3,4-difluorophenyl)-4-phenylpyrrolidin-3-amine] belongs no more than 10 µM; to `Cn1cnc(S(=O)(=O)N2C[C@@H](Nc3cccc(OC(F)(F)F)c3)[C@H](c3ncccc3F)C2)c1` (relative stereo) [Example 799, Trans-4-(3-fluoropyridin-2-yl)-1-[(1-methyl-1H-imidazol-4-yl)sulfonyl]-N-[3-(trifluoromethoxy)phenyl]pyrrolidin-3-amine], no more than 0.1 µM.
The same measure, in the same setting: the figure for `Cn1cnc(S(=O)(=O)N2C[C@@H](CNc3cccc(C(N)=O)c3)[C@H](c3ccc(F)cc3)C2)c1` (relative stereo) [Example 364, 3-[({Trans-4-(4-fluorophenyl)-1-[(1-methyl-1H-imidazol-4-yl)sulfonyl]pyrrolidin-3-yl}methyl)amino]benzamide] is no more than 10 µM; for `Cc1c(S(=O)(=O)N2CC(Nc3ccc(F)c(F)c3)C(c3ccccc3)C2)cnn1C` (stereo not shown) [Example 483, N-(3,4-difluorophenyl)-1-[(1,5-dimethyl-1H-pyrazol-4-yl)sulfonyl]-4-phenylpyrrolidin-3-amine] it is no more than 10 µM; for `Cn1cnc(S(=O)(=O)N2C[C@H](NCCO[Si](C)(C)C(C)(C)C)[C@@H](c3ccccc3)C2)c1` [Example 551, (3R,4S)-N-(2-{[tert-butyl(dimethyl)silyl]oxy}ethyl)-1-[(1-methyl-1H-imidazol-4-yl)sulfonyl]-4-phenylpyrrolidin-3-amine] it is no more than 10 µM.
Same read-out and setting: to `CCS(=O)(=O)N1C[C@@H](Nc2cccc(C#N)c2)[C@H](c2ccccc2)C1` (relative stereo) [Example 131, 3-{[trans-1-(ethylsulfonyl)-4-phenylpyrrolidin-3-yl]amino}benzonitrile] belongs greater than 10 µM; to `COc1cc(N[C@H]2CN(S(=O)(=O)c3cn(C)cn3)C[C@@H]2c2ccccc2)ncn1` [Example 621, 6-methoxy-N-{(3R,4S)-1-[(1-methyl-1H-imidazol-4-yl)sulfonyl]-4-phenylpyrrolidin-3-yl}pyrimidin-4-amine], no more than 10 µM.
With `CCOCCCNC(=O)[C@@H]1CN(S(=O)(=O)c2cn(C)cn2)C[C@H]1c1ccc(F)cc1` [Example 578, (3S,4R)-N-(3-ethoxypropyl)-4-(4-fluorophenyl)-1-[(1-methyl-1H-imidazol-4-yl)sulfonyl]pyrrolidine-3-carboxamide], the Ki is no more than 10 µM.
Take `Cn1cnc(S(=O)(=O)N2C[C@H](Nc3ccc(F)c(OC(F)(F)F)c3)[C@@H](c3ccccc3)C2)c1` [Example 646, (3R,4S)-N-[4-fluoro-3-(trifluoromethoxy)phenyl]-1-[(1-methyl-1H-imidazol-4-yl)sulfonyl]-4-phenylpyrrolidin-3-amine]: the Ki was no more than 0.01 µM.
For the compound `Cn1cnc(S(=O)(=O)N2C[C@@H](Nc3cc(C(F)(F)F)ncn3)[C@H](c3ncccc3F)C2)c1` (relative stereo) [Example 770, N-{Trans-4-(3-fluoropyridin-2-yl)-1-[(1-methyl-1H-imidazol-4-yl)sulfonyl]pyrrolidin-3-yl}-6-(trifluoromethyl)pyrimidin-4-amine], the Ki was no more than 1 µM.
Same read-out and setting: the figure for `Cn1cnc(S(=O)(=O)N2CC(Cc3ccccc3Br)C(c3ccccc3Br)C2)c1` (stereo not shown) [Example 205, 4-{[3-(2-bromobenzyl)-4-(2-bromophenyl)pyrrolidin-1-yl]sulfonyl}-1-methyl-1H-imidazole] is no more than 1 µM.

The same test, now with this note: radioligand binding, recombinant CHO cell membranes expressing human GlyT1c.
Turning to `Cn1cc(S(=O)(=O)N2C[C@H](Nc3ccc(F)c(Cl)c3)[C@@H](c3ccc(F)cc3)C2)nn1` [Example 842, (3R,4S)-N-(3-chloro-4-fluorophenyl)-4-(4-fluorophenyl)-1-[(1-methyl-1H-1,2,3-triazol-4-yl)sulfonyl]pyrrolidin-3-amine], the Ki is no more than 0.01 µM.
As to `Cn1cnc(S(=O)(=O)N2C[C@@H](Nc3cccc(OC(F)(F)F)c3)[C@H](C3CCOC3)C2)c1` (relative stereo) [Example 835, trans-1-[(1-methyl-1H-imidazol-4-yl)sulfonyl]-4-(tetrahydrofuran-3-yl)-N-[3-(trifluoromethoxy)phenyl]pyrrolidin-3-amine], the Ki is no more than 1 µM.
The same measure, in the same setting: to `Cn1cnc(S(=O)(=O)N2CC(Nc3ccc(F)c(Cl)c3)C([C@@H]3CCCO3)C2)c1` (stereo partly drawn) [Example 825, N-(3-chloro-4-fluorophenyl)-1-[(1-methyl-1H-imidazol-4-yl)sulfonyl]-4-[(2S)-tetrahydrofuran-2-yl]pyrrolidin-3-amine] belongs no more than 1 µM; to “(3R,4S)-4-(1,3-dioxan-2-yl)-N,N-dihexyl-1-[(1-methyl-1H-imidazol-4-yl)sulfonyl]pyrrolidin-3-amine [Example 909]”, no more than 1 µM.
